Data as given in patent publication US10736974B2, “Scaffolds and multifunctional intermediates for imaging PSMA and cancer therapy” (THE JOHNS HOPKINS UNIVERSITY, priority 2014, dated 2020).
Read-outs that look alike come from different tables or passages of the source.

Legend:
PSMA [1] = target: T1, PSMA (Homo sapiens (Human), UniProt Q04609); assay: NAALADase assay: PSMA inhibitory activity, fluorescence-based Amplex Red Glutamic Acid assay, lysates of LNCaP cell extracts; format: biochemical
T1 sequence (Q04609 whole entry): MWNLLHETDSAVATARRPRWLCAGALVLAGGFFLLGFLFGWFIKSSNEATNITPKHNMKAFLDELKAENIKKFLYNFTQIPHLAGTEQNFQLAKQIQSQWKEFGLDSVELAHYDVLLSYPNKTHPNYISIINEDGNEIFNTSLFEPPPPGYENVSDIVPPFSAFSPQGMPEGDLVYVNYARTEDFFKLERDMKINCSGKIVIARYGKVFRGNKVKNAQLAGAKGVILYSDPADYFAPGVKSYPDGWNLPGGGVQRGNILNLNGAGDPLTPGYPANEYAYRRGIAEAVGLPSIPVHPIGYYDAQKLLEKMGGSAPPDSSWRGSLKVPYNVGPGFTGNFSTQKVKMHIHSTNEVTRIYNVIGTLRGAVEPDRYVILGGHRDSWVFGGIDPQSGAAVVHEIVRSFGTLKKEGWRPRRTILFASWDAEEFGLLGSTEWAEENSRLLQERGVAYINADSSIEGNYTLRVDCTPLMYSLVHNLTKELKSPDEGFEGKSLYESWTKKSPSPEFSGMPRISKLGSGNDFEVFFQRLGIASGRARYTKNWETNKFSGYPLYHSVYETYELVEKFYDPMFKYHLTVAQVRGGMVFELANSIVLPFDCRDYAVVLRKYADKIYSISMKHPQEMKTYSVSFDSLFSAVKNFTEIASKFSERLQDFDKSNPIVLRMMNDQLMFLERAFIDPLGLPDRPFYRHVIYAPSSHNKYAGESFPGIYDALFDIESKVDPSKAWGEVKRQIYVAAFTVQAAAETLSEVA
Procedure: Briefly, lysates of LNCaP cell extracts (25 μL) were incubated with the inhibitor (12.5 μL) in the presence of 4 μM N-acetylaspartylglutamate (NAAG) (12.5 μL) for 120 min. The amount of the glutamate released by NAAG hydrolysis was measured by incubating with a working solution (50 μL) of the Amplex Red Glutamic Acid Kit for 60 min. […] Assays were performed in triplicate. Data analysis was performed using GraphPad Prism version 4.00 for Windows (GraphPad Software, San Diego, Calif.).

PSMA [2] = target: T1, PSMA; conditions: from Chen, 2008; read-out: Ki, PSMA inhibition; cited from earlier work
PSMA [3] = target: T1, PSMA; conditions: cited from earlier work; for blood pool and salivary / lacrimal gland uptake in clinical PET imaging: patients
[4] = Table 3, Cheng-Prusoff conversion, read-out: Ki

Row | SMILES | IC50 (PSMA [1]; Table 3) | Ki (PSMA [1]; [4]) | also measured
1 | O=C(O)CC[C@H](NC(=O)N[C@@H](CSCc1ccc(I)cc1)C(=O)O)C(=O)O [DCIBC, reference compound] |  |  | Ki (PSMA [1]; Table 4, read-out: Ki): 0.03 nM
2 | O=C(O)CC[C@H](NC(=O)O[C@@H](CCNC(=O)c1ccc(F)cc1)C(=O)O)C(=O)O [XY-16] | 4500 nM | 900 nM | 
3 | O=C(O)CC[C@H](NC(=O)O[C@H](CCNC(=O)c1ccc(F)cc1)C(=O)O)C(=O)O [XY-17] | 4900 nM | 980 nM | 
4 | O=C(O)CC[C@H](NC(=O)O[C@@H](CCCCNC(=O)c1ccc(F)cc1)C(=O)O)C(=O)O [XY-20, (S)-2-(((((S)-1-carboxy-5-(4-fluorobenzamido)pentyl)oxy)carbonyl)amino)pentanedioic acid] | 210 nM | 42 nM | reduction in binding affinity compared to 9 (YC-I-26) (PSMA [1]): more than 150 fold
5 | COc1ccc2cc(C(=O)NCCCC[C@H](OC(=O)N[C@@H](CCC(=O)O)C(=O)O)C(=O)O)ccc2c1 [XY-22] | 104 nM | 20 nM | 
6 | O=C(O)CC[C@H](NC(=O)O[C@@H](CCCCNC(=O)c1ccc(-c2ccc(OCCF)cc2)cc1)C(=O)O)C(=O)O [XY-24] | 120 nM | 22 nM | 
7 | COc1ccc(C(=O)NCCCC[C@H](OC(=O)N[C@@H](CCC(=O)O)C(=O)O)C(=O)O)cc1 [XY-27] | 100 nM | 21 nM | 
8 | CC(=O)Nc1ccc(C(=O)NCCCC[C@H](OC(=O)N[C@@H](CCC(=O)O)C(=O)O)C(=O)O)cc1 [XY-29] | 660 nM | 130 nM | 
9 | CNC(=O)c1ccc(C(=O)NCCCC[C@H](OC(=O)N[C@@H](CCC(=O)O)C(=O)O)C(=O)O)cc1 [XY-30] | 1300 nM | 270 nM | 
10 | O=C(O)CC[C@H](NC(=O)NC[C@H](NC(=O)c1ccc(F)cc1)C(=O)O)C(=O)O [XY-34] | 43000 nM | 9.7 nM | 
11 | O=C(O)CC[C@H](NC(=O)NC[C@H](NC(=O)CCCNC(=O)c1ccc(F)cc1)C(=O)O)C(=O)O [XY-35] | 8000 nM | 1600 nM | 
12 | O=CO[C@@H](CNC(=O)N[C@@H](CCC(=O)O)C(=O)O)NC(=O)CCCNC(=O)c1ccc(I)cc1F [XY-44] |  |  | Ki (PSMA [1]; Table 4, read-out: Ki): 0.017 nM; Ki (PSMA [1]; read-out: Ki, PSMA inhibition): 0.02 nM
13 | O=CO[C@@H](CNC(=O)N[C@@H](CCC(=O)O)C(=O)O)NC(=O)CCCNC(=O)c1ccc(C2=CCCCC2)cc1F [XY-45] |  |  | Ki (PSMA [1]; Table 4, read-out: Ki): 0.1 nM
14 | O=C(O)CC[C@H](NC(=O)O[C@@H](CCCCNC(=O)c1ccc(Cl)cc1F)C(=O)O)C(=O)O [XY-49] | 192 nM | 38 nM | 
15 | O=C(O)CC[C@H](NC(=O)O[C@@H](CCCCNC(=O)c1ccc(I)cc1OCCCCNC(=O)c1ccc(I)cc1)C(=O)O)C(=O)O [XY-50] | 3800 nM | 770 nM | 
16 | Cc1cc(Br)ccc1C(=O)NCCCC(=O)N[C@H](CNC(=O)N[C@@H](CCC(=O)O)C(=O)O)OC=O [XY-58] |  |  | Ki (PSMA [1]; Table 4, read-out: Ki): 0.036 nM; Ki (PSMA [1]; read-out: Ki, PSMA inhibition): 0.04 nM
17 | O=CO[C@@H](CNC(=O)N[C@@H](CCC(=O)O)C(=O)O)NC(=O)CCCNC(=O)c1ccc(Br)cc1 [XY-59] |  |  | Ki (PSMA [1]; Table 4, read-out: Ki): 0.02 nM
18 | O=CO[C@@H](CNC(=O)N[C@@H](CCC(=O)O)C(=O)O)NC(=O)CCCNC(=O)c1ccc(F)cc1 [YC-I-26, reference compound] |  |  | Ki (PSMA [2]): 0.25 nM; Ki (PSMA [1]; Table 4, read-out: Ki): 0.3 nM
19 | O=C(O)CC[C@H](NC(=O)N[C@@H](CSCc1ccc([18F])cc1)C(=O)O)C(=O)O [[^18F]DCFBC] |  |  | blood pool and salivary / lacrimal gland uptake in clinical PET imaging (PSMA [3]): persistent blood pool occupancy but low salivary gland uptake
20 | O=C(O)CC[C@H](NC(=O)N[C@@H](CCCCNC(=O)Nc1ccc([123I])cc1)C(=O)O)C(=O)O [[^124I]-MIP-1095] |  |  | blood pool and salivary / lacrimal gland uptake in clinical PET imaging (PSMA [3]): rapid clearance from the blood but high uptake in salivary and lacrimal glands
21 | O=C(O)CC[C@H](NC(=O)N[C@@H](CCCCNC(=O)Nc1ccc([131I])cc1)C(=O)O)C(=O)O [[^131I]-MIP-1095] |  |  | dose-limiting organs from absorbed dose estimates (PSMA [3]; Zechmann, 2014): salivary glands, lower large intestinal wall, and kidneys

Second part, led by results:

Row | IC50 (PSMA [1]; Table 3) | Ki (PSMA [1]; [4]) | SMILES | also measured
22 | 60 nM | 12 nM | O=C(O)CC[C@H](NC(=O)O[C@@H](CCCCNC(=O)c1ccc2ccccc2c1)C(=O)O)C(=O)O [XY-21] | 
23 | 30 nM | 6 nM | COc1ccc(-c2ccc(C(=O)NCCCC[C@H](OC(=O)N[C@@H](CCC(=O)O)C(=O)O)C(=O)O)cc2)cc1 [XY-23] | 
24 | 4.3 nM |  | O=C(O)CC[C@H](NC(=O)O[C@@H](CCCCNC(=O)c1ccc(I)cc1)C(=O)O)C(=O)O [XY-26] | Ki (PSMA [1]; read-out: Ki, PSMA inhibition): 0.9 nM
25 | 24 nM | 4.8 nM | CSc1ccc(C(=O)NCCCC[C@H](OC(=O)N[C@@H](CCC(=O)O)C(=O)O)C(=O)O)cc1 [XY-28] | 
26 | 41 nM | 8.3 nM | O=C(O)CC[C@H](NC(=O)O[C@@H](CCCCNC(=O)c1ccc(SCCF)cc1)C(=O)O)C(=O)O [XY-38] | 
27 | 46 nM | 9.3 nM | O=C(O)CC[C@H](NC(=O)O[C@@H](CCCCNC(=O)c1ccc(SCc2ccc(F)cc2)cc1)C(=O)O)C(=O)O [XY-39] | 
28 | 1.3 nM | 0.26 nM | CSc1ccc(C(=O)NCCCC(=O)N[C@H](CNC(=O)N[C@@H](CCC(=O)O)C(=O)O)C(=O)O)cc1 [XY-40] | 
29 | 86 nM | 13 nM | O=C(O)CC[C@H](NC(=O)O[C@@H](CCCCNC(=O)c1ccc(-c2ccccc2)cc1F)C(=O)O)C(=O)O [XY-42] | 
30 | 1.6 nM | 0.32 nM | O=C(O)CC[C@H](NC(=O)O[C@@H](CCCCNC(=O)c1ccc(I)cc1F)C(=O)O)C(=O)O [XY-43] | 
31 | 2 nM | 0.4 nM | O=C(O)CC[C@H](NC(=O)NC[C@@H](NC(=O)CCCNC(=O)c1ccc(-c2ccccc2)cc1F)C(=O)O)C(=O)O [XY-46] | 
